{
  "source": "patent US9655882B2",
  "about": "“Compositions and methods for treatment of neurodegenerative disease” (THE JOHNS HOPKINS UNIVERSITY, priority 2008, dated 2017)",
  "molecules": {"B1": {"name": "Flt31: Flt3 ligand, RTK ligand (protein, UniProt P49771 27-235, looked up)", "Fms-related tyrosine kinase 3 …": "TQDCSFQHSPISSDFAVKIRELSDYLLQDYPVTVASNLQDEELCGGLWRLVLAQRWMERLKTVAGSKMQGLLERVNTEIHFVTKCAFQPPPSCLRFVQTNISRLLQETSEQLVALKPWITRQNFSRCLELQCQPDSSTLPPPWSPRPLEATAPTAPQPPLLLLLLLPVGLLLLAAAWCLHWQRTRRRTPRPGEQVPPVPSPQDLLLVEH"}},
  "key": {"[1]": {"tested_on": "Mouse retinal ganglion cells (RGCs)", "assay": "Live-dead assay of cultured mouse RGCs (Cellomics VTI HCS reader), live cell count", "settings": "approximately 2 days culture, various concentrations, FIG. 4"}, "mouse RGCs [2]": {"tested_on": "mouse RGCs", "assay": "RGC survival in purified primary mouse RGC culture (high-content screening, Calcein AM/Hoechst/Ethidium Homodimer-1)", "format": "cell-based", "experimental": "Purified mouse RGCs were grown in Neurobasal, 2% B27, 1% N2 supplement, 0.5 mM glutamine. […] Increasing concentrations of kinase inhibitors were present in the media as indicated. Viability and neurite growth of RGCs were assayed by a combined staining with Calcein AM, Hoechst, and Ethidium Homodimer-1. The images were taken and processed by Cellomics Kineticscan.\nRGC survival and neurite growth were quantitatively measured as average surviving RGCs/field (4 mm^2) (FIG. 2C), total neurite length per RGC (FIG. 2D), average neurite length per RGC (FIG. 2E), and total neurite count per RGC (FIG. 2F)."}, "mouse RGCs [3]": {"tested_on": "mouse RGCs", "assay": "RGC neurite growth in purified primary mouse RGC culture (high-content screening)", "format": "cell-based", "settings": "Example 4, at 100 nM", "experimental": "Purified mouse RGCs were grown in Neurobasal, 2% B27, 1% N2 supplement, 0.5 mM glutamine. 2 μM forskolin was present in all the conditions except vehicle control with DMSO (dark bar), for 60 hours. Increasing concentrations of kinase inhibitors were present in the media as indicated. Viability and neurite growth of RGCs were assayed by a combined staining with Calcein AM, Hoechst, and Ethidium Homodimer-1. The images were taken and processed by Cellomics Kineticscan. […] Error bars: S.E.M.\nRGC survival and neurite growth were quantitatively measured as average surviving RGCs/field (4 mm^2) (FIG. 2C), total neurite length per RGC (FIG. 2D), average neurite length per RGC (FIG. 2E), and total neurite count per RGC (FIG. 2F). Error bars: S.E.M.\nTo enhance the assay sensitivity, the culture condition is defined to support a baseline level of RGC viability (20˜60% surviving RGCs after three days in culture) and neurite growth by 2.5 μM forskolin."}, "mouse RGCs [4]": {"tested_on": "mouse RGCs", "format": "in vivo", "settings": "for RGC loss / RGC survival after optic nerve injury: intravitreal injection of 1 μl (2 mM) every three days for nine days", "from_the_text": ". Mouse optic nerve crush is a well-established animal model in mimicking the pathological conditions in which the primary injury sites are focal to RGC axons such as in glaucoma, AION, traumatic optic neuropathy, and multiple sclerosis. Specific RGC loss following nerve crush, which largely spares displaced amacrine cells in GCL, is thought to result from incomplete understood mechanism that implicates the blockage of retrograde axonal transport and subsequently impaired neurotrophin signaling, and excitotoxicity etc. In addition, mouse optic nerve crush has been successfully employed as an experimental system to identify the genetic nature controlling RGC susceptibility to axon injury.\nDuring the procedure, the optic nerve was carefully exposed through a post-orbital approach, and crushed with a self-closing forceps for three seconds. […] Since RGCs populate ˜60% cells in rodent GCL, the estimated surviving RGC is ˜57.3%. […]. […]"}, "mouse RGCs [5]": {"tested_on": "mouse RGCs", "assay": "Excitotoxicity (glutamate, KA, NMDA, AMPA) in purified mouse RGCs in vitro", "format": "cell-based", "settings": "1 μM sunitinib", "protocol": "Neuronal toxicity of excitatory amino acid glutamate and its analogue NMDA is implicated in a number of neurodegenerative conditions that involve RGC, such as glaucoma, optic neuropathies of trauma and other origins, and that affect other CNS structures, such as Alzheimer's disease, Parkinson's disease, Huntington's disease, stroke, and […] (ALS). […] RGC viability was measured and the percentage of RGC loss due to the excitotoxicity was calculated."}, "activated Caspase-3": {"tested_on": "activated Caspase-3", "assay": "Activated Caspase-3 positive (apoptotic) cells in GCL after mouse optic nerve crush", "format": "in vivo", "settings": "three days following nerve crush, systemic treatment", "from_the_text": "Apoptosis has been identified as the major form of RGC death in many, if not all, degenerative conditions targeting their axons, and in mouse optic nerve."}, "RGC": {"tested_on": "RGC", "assay": "RGC survival under Flt3 ligand with or without sunitinib", "format": "cell-based"}, "FLT3": {"biological_target": "T1, FLT3 (Homo sapiens, UniProt P36888)", "T1 sequence (P36888 27-993)": "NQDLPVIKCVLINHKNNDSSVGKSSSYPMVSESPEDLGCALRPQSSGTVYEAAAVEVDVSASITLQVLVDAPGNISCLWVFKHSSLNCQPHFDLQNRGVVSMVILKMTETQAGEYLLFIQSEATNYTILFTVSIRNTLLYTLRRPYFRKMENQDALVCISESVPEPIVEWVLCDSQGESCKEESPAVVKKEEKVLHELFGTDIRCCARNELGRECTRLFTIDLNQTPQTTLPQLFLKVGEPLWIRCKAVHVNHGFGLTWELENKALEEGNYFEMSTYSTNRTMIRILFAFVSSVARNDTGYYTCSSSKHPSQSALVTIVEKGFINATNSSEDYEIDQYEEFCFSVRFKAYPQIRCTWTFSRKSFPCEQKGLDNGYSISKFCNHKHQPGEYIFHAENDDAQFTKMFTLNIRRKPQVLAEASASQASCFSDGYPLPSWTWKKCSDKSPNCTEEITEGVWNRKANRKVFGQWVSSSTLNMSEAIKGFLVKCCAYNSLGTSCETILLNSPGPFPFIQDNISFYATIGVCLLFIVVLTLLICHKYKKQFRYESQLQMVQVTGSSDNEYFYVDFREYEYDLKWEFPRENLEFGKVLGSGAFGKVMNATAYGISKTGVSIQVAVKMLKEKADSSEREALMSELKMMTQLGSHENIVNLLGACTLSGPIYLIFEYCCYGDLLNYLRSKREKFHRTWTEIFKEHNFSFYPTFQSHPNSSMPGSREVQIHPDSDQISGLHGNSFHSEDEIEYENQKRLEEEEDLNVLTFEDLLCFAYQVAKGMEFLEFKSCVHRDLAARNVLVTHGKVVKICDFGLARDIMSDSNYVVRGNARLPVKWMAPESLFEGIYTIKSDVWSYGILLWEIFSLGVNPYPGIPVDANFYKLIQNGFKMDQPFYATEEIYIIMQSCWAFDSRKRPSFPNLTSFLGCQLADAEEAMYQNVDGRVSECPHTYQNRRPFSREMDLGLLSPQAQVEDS", "settings": "cited from earlier work"}},
  "note": "Read-outs that look alike come from different tables or passages of the source.",
  "data": [
    {"molecule": "CN(C)S(=O)(=O)c1ccc2c(c1)/C(=C/c1cc3c([nH]1)CCCC3)C(=O)N2", "note": "[SU6656, (3Z)—N,N-dimethyl-2-oxo-3-(4,5,6,7-tetrahydro-1H-indol-2-ylmethylidene)-1H-indole-5-sulfonamide]", "values": [
      {"measurement": "RGC survival (live cell count)", "setting": "[1]", "value": "significantly increased RGC survival"}
    ]},
    {"molecule": "CNC(=O)c1cc(Oc2ccc(NC(=O)Nc3ccc(Cl)c(C(F)(F)F)c3)cc2)ccn1", "note": "[Sorafenib]", "values": [
      {"measurement": "pro-surviving activity on RGCs", "setting": "mouse RGCs [2]; Example 4, clinical protein kinase inhibitors, purified primary mouse RGC culture", "value": "lacking strong protective activity to RGC"},
      {"measurement": "RGC neurite growth", "setting": "mouse RGCs [3]", "value": "stimulate neurite growth as potently as sunitinib (1 μM)"}
    ]},
    {"molecule": "O=C(NC1CCOCC1)c1ccc(-c2cc(-c3c[nH]nc3-c3ccccn3)ccn2)cc1", "note": "[TGF-beta receptor inhibitor]", "values": [
      {"measurement": "RGC loss / RGC survival after optic nerve injury", "setting": "mouse RGCs [4]", "value": "capable of reducing RGC loss"},
      {"measurement": "RGC loss / RGC survival after optic nerve injury", "setting": "mouse RGCs [4]; listed as drawing 10", "value": "increased RGC survival"}
    ]},
    {"molecule": "CCN(CC)CCNC(=O)c1c(C)[nH]c(/C=C2\\C(=O)Nc3ccc(F)cc32)c1C", "note": "[sunitinib, N-[2-(diethylamino)ethyl]-5-[(Z)-(5-fluoro-1,2-dihydro-2-oxo-3H-indol-3-ylidine)methyl]-2,4-dimethyl-1H-pyrrole-3-carboxamide]", "values": [
      {"measurement": "toxicity to RGC in vitro", "setting": "mouse RGCs [2]; concentrations higher than 1 μM", "value": "higher concentrations exhibit toxicity"},
      {"measurement": "reduction of RGC loss caused by AMPA", "setting": "mouse RGCs [5]; 100 μM AMPA", "value": 4, "unit": "folds"},
      {"measurement": "reduction of RGC loss caused by NMDA", "setting": "mouse RGCs [5]; 100 μM NMDA", "value": "~10", "unit": "folds"},
      {"measurement": "projected surviving RGCs", "setting": "mouse RGCs [4]; mouse, in vivo", "value": 79.2, "unit": "%"},
      {"measurement": "appearance of retina", "setting": "mouse RGCs [4]; mouse, in vivo, 15 mg/kg/day", "value": "obvious yellow appearance"},
      {"measurement": "cells in GCL survived", "setting": "mouse RGCs [4]; systemic administration of 5 mg/kg/day for ten days after optic nerve crush", "value": "~88.5", "unit": "%"},
      {"measurement": "reduction of number of apoptotic cells in GCL", "setting": "activated Caspase-3", "value": 38.9, "unit": "%"},
      {"measurement": "antagonism of detrimental effects of Flt31 on RGC", "setting": "RGC; Flt31 at 16 ng/ml, sunitinib present in the media", "value": 1.4, "unit": "fold"}
    ]},
    {"molecule": "B1", "values": [
      {"measurement": "effect on RGC survival", "setting": "RGC; Flt31 at 4 ng/ml", "value": "did not appear to affect RGC survival"},
      {"measurement": "compromise of the pro-surviving activity of sunitinib", "setting": "RGC; Flt31 at 4 ng/ml with sunitinib", "value": 36.6, "unit": "%"},
      {"measurement": "reduction of RGC survival", "setting": "RGC; Flt31 at 16 ng/ml", "value": 38.3, "unit": "%"},
      {"measurement": "EC50", "setting": "FLT3", "value": 4, "unit": "ng/mL"}
    ]}
  ]
}
